PMC7075836 (European Journal of Nuclear Medicine and Molecular Imaging, 2020)

Tests used:
α5β1 = target: T1, α5β1 (Homo sapiens, UniProt P05556+P08648); assay: biochemical; settings: read-out: inhibition of binding
T1 construct: incubating a small molecule RGD-mimetic-tritiated radioligand with soluble integrin protein

α8β1 = target: T2, α8β1 (Homo sapiens, UniProt P05556+P53708); assay: biochemical; settings: read-out: inhibition of binding
T2 construct: incubating a small molecule RGD-mimetic-tritiated radioligand with soluble integrin protein
T2 sequence (P53708 39-1012 limits assumed): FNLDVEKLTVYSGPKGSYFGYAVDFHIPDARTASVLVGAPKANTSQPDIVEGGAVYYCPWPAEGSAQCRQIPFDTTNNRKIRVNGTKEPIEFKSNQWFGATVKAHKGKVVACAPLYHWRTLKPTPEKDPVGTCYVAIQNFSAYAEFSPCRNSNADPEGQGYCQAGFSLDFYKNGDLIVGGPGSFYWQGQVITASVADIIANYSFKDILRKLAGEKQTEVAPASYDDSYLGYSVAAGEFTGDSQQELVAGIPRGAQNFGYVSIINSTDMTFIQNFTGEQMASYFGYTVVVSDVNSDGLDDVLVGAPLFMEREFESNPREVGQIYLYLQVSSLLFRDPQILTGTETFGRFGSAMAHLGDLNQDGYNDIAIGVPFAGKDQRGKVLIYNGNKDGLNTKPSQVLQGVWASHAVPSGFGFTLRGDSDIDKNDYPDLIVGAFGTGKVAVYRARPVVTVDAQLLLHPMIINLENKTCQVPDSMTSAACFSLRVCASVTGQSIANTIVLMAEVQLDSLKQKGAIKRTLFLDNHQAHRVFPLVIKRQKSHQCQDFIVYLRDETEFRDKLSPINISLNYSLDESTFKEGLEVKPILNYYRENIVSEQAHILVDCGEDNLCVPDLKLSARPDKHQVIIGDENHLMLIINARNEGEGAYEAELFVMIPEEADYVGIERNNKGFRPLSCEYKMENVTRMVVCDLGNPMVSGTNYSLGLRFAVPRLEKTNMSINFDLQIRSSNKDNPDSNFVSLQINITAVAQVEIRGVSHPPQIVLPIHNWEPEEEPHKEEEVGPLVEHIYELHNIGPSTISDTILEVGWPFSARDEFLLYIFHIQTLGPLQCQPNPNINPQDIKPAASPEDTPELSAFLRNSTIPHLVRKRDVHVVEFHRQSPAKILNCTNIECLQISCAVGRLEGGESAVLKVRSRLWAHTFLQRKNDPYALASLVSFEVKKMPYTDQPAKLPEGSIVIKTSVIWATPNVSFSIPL
T2 sequence (P05556 21-728 limits assumed): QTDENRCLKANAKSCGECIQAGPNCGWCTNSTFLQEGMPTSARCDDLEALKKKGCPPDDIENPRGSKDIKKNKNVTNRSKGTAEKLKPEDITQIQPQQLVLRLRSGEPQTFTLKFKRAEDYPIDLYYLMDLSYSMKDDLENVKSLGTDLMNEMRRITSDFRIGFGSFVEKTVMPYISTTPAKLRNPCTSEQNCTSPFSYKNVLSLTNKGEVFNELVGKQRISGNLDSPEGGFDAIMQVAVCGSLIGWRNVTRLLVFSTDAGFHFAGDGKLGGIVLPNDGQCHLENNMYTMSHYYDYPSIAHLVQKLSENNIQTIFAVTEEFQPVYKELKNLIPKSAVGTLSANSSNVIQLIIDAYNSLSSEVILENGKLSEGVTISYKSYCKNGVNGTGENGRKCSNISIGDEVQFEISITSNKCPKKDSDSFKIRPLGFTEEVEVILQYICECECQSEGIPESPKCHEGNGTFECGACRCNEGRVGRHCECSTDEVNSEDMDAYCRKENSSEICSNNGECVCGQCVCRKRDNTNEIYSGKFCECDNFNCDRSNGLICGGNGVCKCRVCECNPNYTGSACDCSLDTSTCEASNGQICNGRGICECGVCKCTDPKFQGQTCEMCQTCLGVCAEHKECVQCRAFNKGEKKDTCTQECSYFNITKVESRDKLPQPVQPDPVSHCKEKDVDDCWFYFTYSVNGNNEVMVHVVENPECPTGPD

T1 sequence (P08648 42-995 limits assumed): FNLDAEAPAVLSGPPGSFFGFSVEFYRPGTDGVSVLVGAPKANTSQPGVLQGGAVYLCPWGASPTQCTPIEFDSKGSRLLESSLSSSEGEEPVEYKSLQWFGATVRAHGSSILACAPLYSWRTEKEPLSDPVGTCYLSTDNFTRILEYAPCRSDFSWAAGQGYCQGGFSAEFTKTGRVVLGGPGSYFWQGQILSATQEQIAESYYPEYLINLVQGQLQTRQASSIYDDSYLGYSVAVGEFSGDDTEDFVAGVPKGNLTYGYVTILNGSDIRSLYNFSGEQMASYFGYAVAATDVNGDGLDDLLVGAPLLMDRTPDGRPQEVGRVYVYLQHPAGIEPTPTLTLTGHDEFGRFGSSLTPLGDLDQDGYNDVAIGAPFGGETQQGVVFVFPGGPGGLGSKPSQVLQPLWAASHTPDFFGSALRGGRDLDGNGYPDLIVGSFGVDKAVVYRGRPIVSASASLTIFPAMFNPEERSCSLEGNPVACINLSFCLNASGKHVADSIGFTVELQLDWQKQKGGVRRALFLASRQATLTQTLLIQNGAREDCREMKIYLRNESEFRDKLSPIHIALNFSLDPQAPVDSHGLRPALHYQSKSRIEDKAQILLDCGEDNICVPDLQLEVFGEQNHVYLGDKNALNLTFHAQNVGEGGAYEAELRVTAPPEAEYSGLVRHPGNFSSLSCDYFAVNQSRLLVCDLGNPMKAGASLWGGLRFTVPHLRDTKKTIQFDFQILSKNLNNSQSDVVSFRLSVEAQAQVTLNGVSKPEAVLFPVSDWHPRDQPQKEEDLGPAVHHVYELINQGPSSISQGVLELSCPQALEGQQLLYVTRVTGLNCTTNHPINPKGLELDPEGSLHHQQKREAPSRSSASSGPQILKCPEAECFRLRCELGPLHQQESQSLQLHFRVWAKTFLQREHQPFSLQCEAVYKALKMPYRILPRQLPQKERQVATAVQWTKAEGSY
T1 sequence (P05556 21-728 limits assumed): as the sequence (P05556 21-728 limits assumed) above

Structure (SMILES): CC(C)C[C@H](NC(=O)[C@H](CC(=O)O)NC(=O)CNC(=O)[C@H](CCCNC(=N)N)NC(=O)[C@H](CC(C)C)NC(=O)[C@H](CC(N)=O)NC(=O)[C@@H]1CCCN1C(=O)[C@@H](NC(=O)[C@H](C)NC(=O)[C@@H](N)CC(N)=O)C(C)C)C(=O)N[C@@H](CCC(N)=O)C(=O)N[C@H](C(=O)N[C@@H](CC(C)C)C(=O)N[C@@H](C)C(=O)N[C@@H](CCC(N)=O)C(=O)N[C@@H](CCCCN)C(=O)N[C@H](C(=O)N[C@@H](C)C(=O)N[C@@H](CCCNC(=N)N)C(=O)N[C@H](C(N)=O)[C@@H](C)O)C(C)C)C(C)C [A20FMDV2]
- inhibition at 1 µM (α5β1): < 50%
- inhibition at 1 µM (α8β1): < 50%
